The supplement of paper PMC11997997

How the values were obtained:
[1] = test system: murine bone marrow-derived macrophages; assay: area under cytotoxicity dose-response curve (AUC (% cytotoxicity x dose, relative)); higher = more cytotoxic; settings: duration: 6 days; dose range: 0.13-80 uM, 8 points
Procedure, shortened: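 Cytotoxicity is expressed as the area under the dose–response curve from GraphPad Prism version 10. To obtain it, primary murine bone marrow-derived macrophages were incubated for 6 days at 37 °C in 5% CO2 across final concentrations of 80–0.13 μM. Viability came from CellTiter-Glo luminescence, and percent cytotoxicity was normalised to vehicle and positive control wells.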

[2] = test system: Mycobacterium tuberculosis CDC1551 (intracellular, in murine BMDM); assay: area under intracellular growth-inhibition dose-response curve (AUC (% inhibition x dose, relative)); higher = more potent; settings: duration: 6 days; dose range: 0.13-80 uM, 8 points
Procedure, shortened: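 In 384-well opaque plates, primary murine bone marrow-derived macrophages were infected with luciferase-expressing M. tuberculosis CDC1551 (multiplicity of infection 1, 1 h) 24 h after seeding, then treated for 6 days across final concentrations of 80–0.13 μM. Growth was measured by Bright-Glo luciferin assay, normalised to a reference drug control and the lowest-concentration wells. The reported value is the area under the growth-inhibition dose–response curve from GraphPad Prism.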

Row | SMILES | area under cytotoxicity dose-response curve [1] | area under intracellular growth-inhibition dose-response curve [2]
1 | Cc1nnc(SCC2=C(C(=O)O)N3C(=O)C(NC(=O)Cn4nc(C(F)F)c(Cl)c4C)C3SC2)s1 (stereo not drawn) | < 0 | 193
2 | COc1cccc(OCC(=O)NC2CCCCC2)c1 | 94 | 226
3 | C=C[C@]1(C)C[C@@H](OC(=O)CSCCN(CC)CC)[C@]2(C)C(C)CC[C@]3(CCC(=O)[C@H]32)[C@@H](C)[C@@H]1O (stereo partly drawn) | < 0 | 231
4 | O=C(/C=C/c1ccc([N+](=O)[O-])o1)NNC(=O)c1ccc(F)cc1 | 51.9 | 19.6
5 | CC(=O)N1CCN(c2cc3c(cc2F)c(=O)c(C(=O)O)cn3C2CC2)CC1 | 6.41 | 228
6 | CC(C)(C)c1nnc(NC(=S)Nc2ccccc2)s1 | < 0 | 258
7 | CCc1ccc(OCC(=O)NC(=S)Nc2ccc(C(C)=O)cc2)c(Br)c1 | < 0 | 238
8 | O=C(CSc1nc(-c2ccccc2)ns1)N1CCOCC1 | 56.3 | 163
9 | O=C(CCC1CCCC1)NCc1cccs1 | 42.7 | 198
10 | O=C(Nc1ccc(C(=O)Oc2ccccc2)c(O)c1)c1ccccc1 | 93.1 | 210
11 | Cc1cc(Cl)ccc1NC(=S)NCC(O)c1ccccc1 (stereo not drawn) | 76.6 | 126
12 | Cc1occc1C(=O)N/N=C/C=C/c1ccccc1 | 60 | 87.6
13 | Cc1nnc(SCC2=C(C(=O)O)N3C(=O)C(NC(=O)Cn4cnnn4)C3SC2)s1 (stereo not drawn) | 100 | 138
14 | COc1ccc(Cc2nnc(-c3ccccc3)o2)cc1 | 28.8 | 243
15 | CC(=O)N1CCN(S(=O)(=O)c2cccc(C(=O)Nc3ccccc3N3CCCCC3)c2)CC1 | 21.9 | < 0
16 | COc1ccc(/C=N/NC(=O)c2ccncc2)cc1COc1ccc(NC(C)=O)cc1 | 14.4 | 272
17 | Cc1cccc(N2CCN(Cc3ccc([N+](=O)[O-])o3)CC2)c1C | 38.8 | 221
18 | O=[N+]([O-])c1ccc(CN2CCN(c3ccccc3Cl)CC2)o1 | 63.5 | 123
19 | NC(=S)N/N=C/c1ccc2c(c1)OCCO2 | < 0 | 263
20 | CCc1ccc(C(C)NC(=O)c2cccs2)cc1 (stereo not drawn) | 120 | 123

Row | SMILES | area under cytotoxicity dose-response curve [1] | area under intracellular growth-inhibition dose-response curve [2]
21 | Cc1ccc(S(=O)(=O)N2CCN(C(=O)c3cc(S(=O)(=O)N4CCOCC4)c(Cl)cc3Cl)CC2)cc1 | 21.2 | 75.1
22 | CC(=O)Nc1ccc(/C(C)=N/NC(=O)c2ccncc2)cc1 | 0.755 | 250
23 | O=C(NC1CCCCCCC1)c1ccc(Br)o1 | 38.5 | 251
24 | COc1cc(OC)c(/C=N/NC(=O)c2ccncc2)c(OC)c1 | 60.6 | 272
25 | CC(=O)O[C@H]1C[C@@]2(C)[C@@H](C[C@@H](O)[C@H]3[C@@]4(C)CC[C@@H](O)[C@@H](C)[C@@H]4CC[C@@]32C)/C1=C(\CCC=C(C)C)C(=O)[O-].[Na+] | 74.7 | 182
26 | CC[N+](CC)(CC)CCCCOc1ccc2c(c1)C(=O)c1cc(OCCCC[N+](CC)(CC)CC)ccc1-2.[I-] | 56.8 | 92.4
27 | COc1ccc(OCC(=O)NC(=S)Nc2ccc(N3CCOCC3)c(Cl)c2)cc1 | 123 | 173
28 | O=C(COc1ccccc1)N1CCN(c2ccccc2)CC1 | 10 | 122
29 | COCC(=O)Nc1nnc(Cc2ccc(OC)cc2)s1 | 21.6 | 159
30 | CC(=O)c1cc(NC(=O)c2ccc(C)cc2)c(=O)oc1/C=C/N(C)C | 37.1 | 115
31 | CC1CCN(C(=O)C2CCC(CNc3c(N4CCCCC4)c(=O)c3=O)CC2)CC1 (stereo not drawn) | 8.86 | 87.1
32 | COc1ccc(OCc2n(CC(=O)OC3CC(C)CCC3C(C)C)c3ccccc3[n+]2C)cc1.[Cl-] (stereo not drawn) | 58.8 | 139
33 | O=C(N/N=C/c1ccc(Sc2nc3ccccc3[nH]2)o1)c1ccncc1 | 34.4 | 269
34 | CCc1ccc([C@@H]2CC=C(C(=O)O)[C@H](c3ccc(C(C)(C)C)cc3)N2S(=O)(=O)c2ccc(C)cc2)cc1 | 78.6 | 84.8
35 | CCCn1nnc(NC(=S)NC(=O)c2ccccc2OC)n1 | 25.9 | 64.2
36 | CCOC(=O)[N-]c1c[n+](N2CCOCC2)no1 | 41.1 | 28
37 | CCCCCC(=O)N1CCCC1 | 20.6 | 139
38 | CCOc1ccc2oc(C(=O)OCC(=O)N3C(C)CCCC3C)c(C)c2c1 (stereo not drawn) | 105 | 5.04
39 | Cc1ccc(C(C)C)c(OCc2n[n+](CC(=O)c3ccc(Cl)cc3)c3n2CCCCC3)c1.[Br-] | < 0 | 169
40 | CC(=O)Nc1ccc(S(=O)(=O)Nc2ccc(N3CCCCC3)cc2)cc1 | 16.6 | 27.8

Row | SMILES | area under cytotoxicity dose-response curve [1] | area under intracellular growth-inhibition dose-response curve [2]
41 | O=C(N/N=C/c1ccc(OCc2cnc(Cl)s2)cc1)c1ccncc1 | 48.7 | 238
42 | CC(=O)c1cccc(NC(=O)NC2CCCCCCC2)c1 | 36.2 | 244
43 | O=C(N/N=C/c1cn[nH]c1-c1ccc(F)cc1)c1ccncc1 | 215 | 226
44 | O=C(/C=C/c1cccs1)N1CCCCC1 | < 0 | 243
45 | CC(=O)Nc1cccc(/C(C)=N/NC(N)=S)c1 | < 0 | 235
46 | Cc1ccc(-c2cc(-c3ccccc3)cc(-c3ccccc3)[n+]2-c2ccccc2)cc1.[O-][Cl+3]([O-])([O-])[O-] | 23.7 | 91.8
47 | O=C(NCCc1ccc(F)cc1)NC12CC3CC(CC(C3)C1)C2 | 60.1 | 190
48 | CC1CCC(C(C)C)C(OC(=O)C[n+]2cc(-c3ccc(Cl)cc3)n3c2CCCCC3)C1.[Cl-] (stereo not drawn) | 107 | 94.6
49 | CC[C@H]1OC(=O)[C@H](C)[C@@H](O[C@H]2C[C@@](C)(OC)[C@@H](O)[C@H](C)O2)[C@H](C)[C@@H](O[C@@H]2O[C@H](C)C[C@H](N(C)C)[C@H]2O)[C@](C)(O)C[C@@H](C)C(=NOCOCCOC)[C@H](C)[C@@H](O)[C@]1(C)O | 7.74 | 204
50 | CC(NC(=O)c1cccc(F)c1)C1CC2CCC1C2 (stereo not drawn) | < 0 | 273
51 | Cc1ccc(/C(O)=C/c2nc3ccccc3oc2=O)cc1 | < 0 | 22.9
52 | NC(=S)N/N=C/c1cccc(/C=N/NC(N)=S)c1 | 91.2 | 177
53 | CCn1c(-c2cccs2)nc2ccccc21 | 69.6 | 194
54 | CCOC(=O)C1=C(COC(=O)c2ccc(OC)c(S(=O)(=O)N3CCOCC3)c2)NC(=O)NC1C (stereo not drawn) | 65.5 | 56.9
55 | CN(C)c1ccc(O)c2c1CC1CC3[C@@H](N(C)C)C(=O)C(C(N)=O)=C(O)[C@]3(O)C(=O)C1=C2O.Cl (stereo partly drawn) | 112 | 246
56 | Cc1cc(C)n2nc3nc4c(cc3c2n1)CCCC4 | < 0 | 152
57 | O=C(NCCc1ccncc1)Nc1cccc(Cl)c1 | 79.9 | 11.9
58 | c1ccc2c(c1)-c1cccc3cncc-2c13 | 36.8 | 200
59 | CN(C)S(=O)(=O)c1ccc(C(=O)OCC(=O)Nc2ccc3c(c2)OCO3)cc1 | 38.4 | 11.2
